Calls of active or inactive are those of the source. The calls are words filed in the database; no cut-off is given here.
Experiments:
Candida albicans = experiment: Antimicrobial activity against Candida albicans at 1 mg/mL by agar-well diffusion assay; type: functional; settings: for zone of inhibition at 1000 µg/mL: Candida albicans, read-out: IZ
Aspergillus flavus = experiment: Antimicrobial activity against Aspergillus flavus at 1 mg/mL by agar-well diffusion assay; type: functional
Aspergillus fumigatus = experiment: Antimicrobial activity against Aspergillus fumigatus at 1 mg/mL by agar-well diffusion assay; type: functional
Cryptococcus neoformans = experiment: Antimicrobial activity against Cryptococcus neoformans at 1 mg/mL by agar-well diffusion assay; type: functional
[1] = test system: Trichophyton mentagrophytes; experiment: Antimicrobial activity against Trichophyton mentagrophytes at 1 mg/mL by agar-well diffusion assay; type: functional
Nannizzia gypsea = experiment: Antimicrobial activity against Microsporum gypseum at 1 mg/mL by agar-well diffusion assay; type: functional
Saccharomyces cerevisiae = experiment: Antimicrobial activity against Saccharomyces cerevisiae at 1 mg/mL by agar-well diffusion assay; type: functional, organism-based
Escherichia coli = experiment: Antimicrobial activity against Escherichia coli at 1 mg/mL by agar-well diffusion assay; type: functional, organism-based
Staphylococcus aureus = experiment: Antimicrobial activity against Staphylococcus aureus at 1 mg/mL by agar-well diffusion assay; type: functional, organism-based
Bacillus subtilis = experiment: Antimicrobial activity against Bacillus subtilis at 1 mg/mL by agar-well diffusion assay; type: functional, organism-based
Pseudomonas aeruginosa = experiment: Antimicrobial activity against Pseudomonas aeruginosa at 1 mg/mL by agar-well diffusion assay; type: functional, organism-based
[2] = test system: Mycobacterium intracellulare; experiment: Antimicrobial activity against Mycobacterium intracellular at 1 mg/mL by agar-well diffusion assay; type: functional

Row | SMILES | zone of inhibition at 1000 µg/mL (Candida albicans) | Activity (Aspergillus flavus) | Activity (Aspergillus fumigatus) | Activity (Cryptococcus neoformans) | Activity [1] | Activity (Nannizzia gypsea) | Activity (Saccharomyces cerevisiae) | Activity (Escherichia coli) | Activity (Staphylococcus aureus) | Activity (Bacillus subtilis) | Activity (Pseudomonas aeruginosa) | Activity [2] | zone of inhibition at 1000 µg/mL (Aspergillus flavus; read-out: IZ) | zone of inhibition at 1000 µg/mL (Aspergillus fumigatus; Aspergillus fumigatus, read-out: IZ) | zone of inhibition at 1000 µg/mL (Cryptococcus neoformans; read-out: IZ) | zone of inhibition at 1000 µg/mL ([2]; read-out: IZ) | inhibition zone (IZ) (Candida albicans) | inhibition zone (IZ) (Aspergillus fumigatus) | inhibition zone (IZ) [1] | inhibition zone (IZ) (Nannizzia gypsea)
1 | CC(=O)O[C@]12CCC(C(=O)O)=CC[C@]13CC[C@H]2[C@@](C)(/C=C/C=C(\C)C(=O)O)OC3=O [PSEUDOLARIC ACID C2] | < 1 mm | inactive | inactive | inactive | inactive | inactive | inactive | inactive | inactive | inactive | inactive | inactive |  |  |  |  |  |  |  | 
2 | COC(=O)C1=CC[C@@]23CC[C@@H]([C@@](C)(/C=C/C=C(\C)C(=O)O)OC2=O)[C@@]3(O)CC1 [PSEUDOLARIC ACID C] | 1 mm |  |  |  | inactive | inactive | inactive | inactive | inactive | inactive | inactive |  | 1 mm | 1 mm | 1 mm | 1 mm |  |  |  | 
3 | COC(=O)C1=CC[C@@]23CC[C@@H]([C@@](C)(/C=C/C=C(\C)C(=O)[O-])OC2=O)[C@@]3(OC(C)=O)CC1.[Na+] [SODIUM PSEUDOLARATE B] |  |  |  |  |  |  |  |  |  |  |  |  |  |  |  |  | 7 mm | 3 mm | 7 mm | 7 mm

Reference: ChEMBL document CHEMBL1159211, “Antifungal evaluation of pseudolaric acid B, a major constituent of Pseudolarix kaempferi” (J Nat Prod, 1995)
